# Columns and labels:
# Type in all cases: in vivo
# [1] = test system: redroot pigweed (Amaranthus retroflexus, AMARE); assay: Pre-emerge test, greenhouse herbicide activity screening; settings: for Pre-emerge Herbicidal Activity, phytotoxicity rating (0-100), AMARE: rated 14 days after application, 0 = no damage, 100 = complete death
# Outline: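 Rating: 0–100 visual injury, 14 DAA. Application: acetone, 187 l/ha, 15–1000 g ai/ha, flat-fan track sprayer with nozzle 40–45 cm above soil or canopy. Post-emerge runs used 0.25% v/v surfactant on 2–3 leaf plants.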
# [2] = test system: barnyardgrass (Echinochloa crus-galli, ECHCG); assay: as above; settings: for Pre-emerge Herbicidal Activity, phytotoxicity rating (0-100), ECHCG: rated 14 days after application, 0 = no damage, 100 = complete death
# Outline: (§1)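 Visual ratings on a 0-100 scale (0 no damage, 100 all plants dead) were taken at 14 days after treatment. Rates of 15-1000 g ai/ha in acetone, 187 l/ha, were sprayed onto soil one day after planting (pre-emerge) or onto 2-3 leaf plants with 0.25% v/v surfactant (post-emerge).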
# [3] = test system: green foxtail (Setaria viridis, SETVI); assay: as above; settings: for Pre-emerge Herbicidal Activity, phytotoxicity rating (0-100), SETVI: rated 14 days after application, 0 = no damage, 100 = complete death
# Outline: as §1
# [4] = test system: ivyleaf morningglory (Ipomoea hederacea, IPOHE); assay: as above; settings: for Pre-emerge Herbicidal Activity, phytotoxicity rating (0-100), IPOHE: rated 14 days after application, 0 = no damage, 100 = complete death
# Outline: as §1
# [5] = test system: johnsongrass (Sorghum halepense, SORHA); assay: as above; settings: for Pre-emerge Herbicidal Activity, phytotoxicity rating (0-100), SORHA: rated 14 days after application, 0 = no damage, 100 = complete death
# Outline: as §1
# [6] = test system: lambsquarters (Chenopodium album, CHEAL); assay: as above; settings: for Pre-emerge Herbicidal Activity, phytotoxicity rating (0-100), CHEAL: rated 14 days after application, 0 = no damage, 100 = complete death
# Outline: as §1
# [7] = test system: large crabgrass (Digitaria sanguinalis, DIGSA); assay: as above; settings: for Pre-emerge Herbicidal Activity, phytotoxicity rating (0-100), DIGSA: rated 14 days after application, 0 = no damage, 100 = complete death
# Outline: as §1
# [8] = test system: sicklepod (Cassia obtusifolia, CASOB); assay: as above; settings: for Pre-emerge Herbicidal Activity, phytotoxicity rating (0-100), CASOB: rated 14 days after application, 0 = no damage, 100 = complete death
# Outline: as §1
# [9] = test system: velvetleaf (Abutilon theophrasti, ABUTH); assay: as above; settings: for Pre-emerge Herbicidal Activity, phytotoxicity rating (0-100), ABUTH: rated 14 days after application, 0 = no damage, 100 = complete death
# Outline: as §1
# [10] = test system: field corn (Zea mays L., var. Dekalb 535, CORN); assay: Pre-emerge test, crop safety; settings: for Pre-emerge phytotoxicity rating (0-100), crop damage, CORN: rated 14 days after application, 0 = no damage, 100 = complete death
# Outline: (§2)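 Fourteen days after spraying, crop and weed injury was graded visually from 0, no effect, to 100, every plant dead. Test substances were dissolved in acetone and applied at 15–1000 g ai/ha with a flat-fan nozzle. Application was either pre-emergence, one day after sowing, or post-emergence at the 2–3 leaf stage.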
# [11] = test system: upland rice (Oryza sp., var. Tebonnet, RICE); assay: Pre-emerge test, crop safety; settings: for Pre-emerge phytotoxicity rating (0-100), crop damage, RICE: rated 14 days after application, 0 = no damage, 100 = complete death
# Outline: as §2
# [12] = test system: barnyardgrass (Echinochloa crus-galli, ECHCG); assay: Post-emerge test, greenhouse herbicide activity screening; settings: post-emerge, 14 days after application, rating scale 0-100
# Outline: (§3)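 Each test used a mechanized track sprayer delivering 187 l/ha of acetone solution at 15–1000 g ai/ha. Post-emerge foliage at 2–3 leaves was treated with added 0.25% v/v non-ionic surfactant and bottom-watered only. Injury was assessed on day 14, where 100 means total kill.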
# [13] = test system: green foxtail (Setaria viridis, SETVI); assay: as above; settings: post-emerge, 14 days after application, rating scale 0-100
# Outline: as §3
# [14] = test system: ivyleaf morningglory (Ipomoea hederacea, IPOHE); assay: as above; settings: post-emerge, 14 days after application, rating scale 0-100
# Outline: as §3
# [15] = test system: johnsongrass (Sorghum halepense, SORHA); assay: as above; settings: post-emerge, 14 days after application, rating scale 0-100
# Outline: as §3
# [16] = test system: lambsquarters (Chenopodium album, CHEAL); assay: as above; settings: post-emerge, 14 days after application, rating scale 0-100
# Outline: as §3
# [17] = test system: large crabgrass (Digitaria sanguinalis, DIGSA); assay: as above; settings: post-emerge, 14 days after application, rating scale 0-100
# Outline: as §3
# [18] = test system: redroot pigweed (Amaranthus retroflexus, AMARE); assay: as above; settings: post-emerge, 14 days after application
# Outline: as §3
# [19] = test system: sicklepod (Cassia obtusifolia, CASOB); assay: as above; settings: post-emerge, 14 days after application, rating scale 0-100
# Outline: as §3
# [20] = test system: velvetleaf (Abutilon theophrasti, ABUTH); assay: as above; settings: post-emerge, 14 days after application, rating scale 0-100
# Outline: as §3
# [21] = test system: field corn (Zea mays L., var. Dekalb 535, CORN); assay: Post-emerge test, crop safety; settings: post-emerge, 14 days after application, rating scale 0-100
# Outline: as §1
# [22] = test system: upland rice (Oryza sp., var. Tebonnet, RICE); assay: Post-emerge test, crop safety; settings: post-emerge, 14 days after application, rating scale 0-100
# Outline: as §1
# [23] = 250 g ai/ha, rating scale 0-100
# [24] = 250 g ai/ha, phytotoxicity rating 0-100, 14 days after application
# [25] = 250 g ai/ha, crop damage rating 0-100, 14 days after application
structure (smiles),measurement,setting,value
COc1c(Cl)cc(F)c(-n2c(=S)cc(C(F)(F)F)n(C)c2=O)c1NC(=S)c1ccc(F)cc1F [2-46],"Pre-emerge Herbicidal Activity, phytotoxicity rating (0-100), AMARE",[1]; 63 g ai/ha,100
same,"Pre-emerge Herbicidal Activity, phytotoxicity rating (0-100), AMARE",[1]; 250 g ai/ha,100
same,"Pre-emerge Herbicidal Activity, phytotoxicity rating (0-100), ECHCG",[2]; 63 g ai/ha,0
same,"Pre-emerge Herbicidal Activity, phytotoxicity rating (0-100), ECHCG",[2]; 250 g ai/ha,50
same,"Pre-emerge Herbicidal Activity, phytotoxicity rating (0-100), SETVI",[3]; 63 g ai/ha,90
same,"Pre-emerge Herbicidal Activity, phytotoxicity rating (0-100), SETVI",[3]; 250 g ai/ha,100
same,"Pre-emerge Herbicidal Activity, phytotoxicity rating (0-100), IPOHE",[4]; 63 g ai/ha,0
same,"Pre-emerge Herbicidal Activity, phytotoxicity rating (0-100), IPOHE",[4]; 250 g ai/ha,60
same,"Pre-emerge Herbicidal Activity, phytotoxicity rating (0-100), SORHA",[5]; 63 g ai/ha,30
same,"Pre-emerge Herbicidal Activity, phytotoxicity rating (0-100), SORHA",[5]; 250 g ai/ha,90
same,"Pre-emerge Herbicidal Activity, phytotoxicity rating (0-100), CHEAL",[6]; 63 g ai/ha,100
same,"Pre-emerge Herbicidal Activity, phytotoxicity rating (0-100), CHEAL",[6]; 250 g ai/ha,100
same,"Pre-emerge Herbicidal Activity, phytotoxicity rating (0-100), DIGSA",[7]; 63 g ai/ha,30
same,"Pre-emerge Herbicidal Activity, phytotoxicity rating (0-100), DIGSA",[7]; 250 g ai/ha,70
same,"Pre-emerge Herbicidal Activity, phytotoxicity rating (0-100), CASOB",[8]; 63 g ai/ha,30
same,"Pre-emerge Herbicidal Activity, phytotoxicity rating (0-100), CASOB",[8]; 250 g ai/ha,100
same,"Pre-emerge Herbicidal Activity, phytotoxicity rating (0-100), ABUTH",[9]; 63 g ai/ha,50
same,"Pre-emerge Herbicidal Activity, phytotoxicity rating (0-100), ABUTH",[9]; 250 g ai/ha,100
same,"Pre-emerge phytotoxicity rating (0-100), crop damage, CORN",[10]; 63 g ai/ha,0
same,"Pre-emerge phytotoxicity rating (0-100), crop damage, CORN",[10]; 250 g ai/ha,90
same,"Pre-emerge phytotoxicity rating (0-100), crop damage, RICE",[11]; 63 g ai/ha,20
same,"Pre-emerge phytotoxicity rating (0-100), crop damage, RICE",[11]; 250 g ai/ha,70
same,phytotoxicity rating ECHCG,[12]; 63 g ai/ha,0
same,phytotoxicity rating ECHCG,[12]; 250 g ai/ha,10
same,phytotoxicity rating SETVI,[13]; 63 g ai/ha,0
same,phytotoxicity rating SETVI,[13]; 250 g ai/ha,30
same,phytotoxicity rating IPOHE,[14]; 63 g ai/ha,0
same,phytotoxicity rating IPOHE,[14]; 250 g ai/ha,20
same,phytotoxicity rating SORHA,[15]; 63 g ai/ha,0
same,phytotoxicity rating SORHA,[15]; 250 g ai/ha,0
same,phytotoxicity rating CHEAL,[16]; 63 g ai/ha,10
same,phytotoxicity rating DIGSA,[17]; 63 g ai/ha,0
same,phytotoxicity rating DIGSA,[17]; 250 g ai/ha,0
same,phytotoxicity rating AMARE,"[18]; 63 g ai/ha, rating scale 0-100",30
same,phytotoxicity rating AMARE,[18]; [23],70
same,phytotoxicity rating CASOB,[19]; 63 g ai/ha,0
same,phytotoxicity rating CASOB,[19]; 250 g ai/ha,0
same,phytotoxicity rating ABUTH,[20]; 63 g ai/ha,50
same,phytotoxicity rating ABUTH,[20]; 250 g ai/ha,100
same,phytotoxicity rating CORN,[21]; 63 g ai/ha,0
same,phytotoxicity rating CORN,[21]; 250 g ai/ha,20
same,phytotoxicity rating RICE,[22]; 63 g ai/ha,10
same,phytotoxicity rating RICE,[22]; 250 g ai/ha,30
Nn1c(C(F)(F)F)cc(=O)n(-c2c(F)cc(Cl)c(O)c2NC(=O)c2ccc3ccccc3c2)c1=O [Compound 2-192],Pre-emerge Herbicidal Activity AMARE,[1]; [24],90
same,Pre-emerge Herbicidal Activity ECHCG,[2]; [24],0
same,Pre-emerge Herbicidal Activity SETVI,[3]; [24],0
same,Pre-emerge Herbicidal Activity IPOHE,[4]; [24],30
same,Pre-emerge Herbicidal Activity SORHA,[5]; [24],0
same,Pre-emerge Herbicidal Activity CHEAL,[6]; [24],80
same,Pre-emerge Herbicidal Activity DIGSA,[7]; [24],0
same,Pre-emerge Herbicidal Activity CASOB,[8]; [24],0
same,Pre-emerge Herbicidal Activity ABUTH,[9]; [24],85
same,Pre-emerge Herbicidal Activity CORN,[10]; [25],0
same,Pre-emerge Herbicidal Activity RICE,[11]; [25],0
same,phytotoxicity rating ECHCG,[12]; 63 g ai/ha,0
same,phytotoxicity rating ECHCG,[12]; 250 g ai/ha,0
same,phytotoxicity rating SETVI,[13]; 63 g ai/ha,0
same,phytotoxicity rating SETVI,[13]; 250 g ai/ha,0
same,phytotoxicity rating IPOHE,[14]; 63 g ai/ha,50
same,phytotoxicity rating IPOHE,[14]; 250 g ai/ha,70
same,phytotoxicity rating SORHA,[15]; 63 g ai/ha,0
same,phytotoxicity rating SORHA,[15]; 250 g ai/ha,0
same,phytotoxicity rating CHEAL,[16]; 63 g ai/ha,60
same,phytotoxicity rating CHEAL,[16]; 250 g ai/ha,50
same,phytotoxicity rating DIGSA,[17]; 63 g ai/ha,0
same,phytotoxicity rating DIGSA,[17]; 250 g ai/ha,0
same,phytotoxicity rating AMARE,"[18]; 63 g ai/ha, rating scale 0-100 (0 no damage, 100 complete death)",70
same,phytotoxicity rating AMARE,[18]; [23],70
same,phytotoxicity rating CASOB,[19]; 63 g ai/ha,40
same,phytotoxicity rating CASOB,[19]; 250 g ai/ha,60
same,phytotoxicity rating ABUTH,[20]; 63 g ai/ha,85
same,phytotoxicity rating ABUTH,[20]; 250 g ai/ha,85
same,phytotoxicity rating CORN (crop damage),[21]; 63 g ai/ha,5
same,phytotoxicity rating CORN (crop damage),[21]; 250 g ai/ha,15
same,phytotoxicity rating RICE (crop damage),[22]; 63 g ai/ha,0
same,phytotoxicity rating RICE (crop damage),[22]; 250 g ai/ha,20
